The values below come from US20110212142A1, “CURCUMINOIDS AND ITS METABOLITES FOR THE APPLICATION IN OCULAR DISEASES” (LAILA PHARMACEUTICALS PVT.LTD., priority 2008, published 2011).

The data set can be described thus: Particle size distribution study (Malvern particle size analyzer, laser diffraction). The class given is physicochemical. The procedure:
The study was conducted using Malvern particle size analyzer. The map of scattering intensity versus angle is the primary source of information used to calculate the particle size. The scattering of particles is accurately predicted by the Mie scattering model allowing accurate sizing across the widest possible dynamic range. During the laser diffraction measurement, particles are passed through a focused laser beam. These particles scatter light at an angle that is inversely proportional to their size. The angular intensity of the scattered light is then measured by a series of photosensitive detectors. The advantage of this study is that there is no sample preparation involved.
This is a clear indication that the process of nanoemulsification followed has effectively transformed the large sized particles to nanosized coated curcuminoid particles. Additional peaks can be observed which is contributed by the high molecular weight excipients used to prepare the formulation.

Where two headings read alike, the source gives them in different places.

As to `COc1cc(/C=C/C(=O)CC(=O)/C=C/c2ccc(O)c(OC)c2)ccc1O` [unformulated curcumin 98%, curcumin], the particle size is listed as 373 nm. This molecule yielded a particle size (listed as unformulated curcumin) of 374 nm.
